Values joined by “and” are separate entries in the source; they are usually repeats but may differ in a detail not shown here. Identical values can stand only once.
Assays:
Hep G2 = Hep G2 in-vitro cytotoxicity assay; assay type: cell-based; details: Homo sapiens, HepG2, read-out: Hs HEPG2 pEC50 (converted)
Description: In-vitro cytotoxicity studies can be carried out using Hep G2 (Human hepatocyte carcinoma, HPACC cat. no. 85011430) used as indicators for general mammalian cell toxicity. Hep G2 in-vitro cytotoxicity can be assessed using the assay procedure as described in “Use of a human-derived liver cell line for the detection of cytoprotective, antigenotoxic and cogenotoxic agents”, Volker Mersch-Sundermann, Siegfried Knasmüller, Xin-jiang Wu, Firouz Darroudi, Fekadu Kassie. J. Tox 198 (2004) 329-340) the contents of which are incorporated herein by reference.

[1] = test system: Plasmodium falciparum strain 3D7; test: Plasmodium falciparum 3D7 in vitro growth inhibition (SYBRgreen I); assay type: cell-based; details: for EC50: Plasmodium falciparum, 3D7, read-out: pEC50 for Pf 3D7 (converted)
Method: Parasite Cultures and Cytotoxicity Assay Methodology for Plasmodium falciparum. […] Growth inhibition of the Plasmodium falciparum cultures was quantified in a 10-point dose response curve with a 1 in 3 dilution series from a top assay concentration of 50 μM. This 384 well plate based fluorescence assay utilises the binding of SYBRgreen I (Thermo Fisher Scientific/Invitrogen cat. no. S7585) to double stranded DNA, which greatly increases the fluorescent signal at 528 nm after excitation at 485 nm. Mefloquine was used as a drug control to monitor the quality of the assay (Z′=0.6 to 0.8, where Z′ is a measure of the discrimination between the positive and negative controls on a screen plate). Dose-response curves were determined from a minimum of 3 independent experiments. Compound bioactivity was expressed as EC50, the effective concentration of compound causing 50% parasite death.

Cryptosporidium parvum = test: In vitro Crytosporidium inhibition assay; assay type: cell-based; details: Cryptosporidium parvum; read-out: Cryptosporidium parvum pEC50 (converted)
Description: Assay Method for Measurement of In Vitro Inhibition of Crytosporidium.
These experiments were run in accordance with the method of Besssoff et. al. Antimicrob. Agents Chemother. 2013, 57:1804-1814. Results from these experiments are provided in the Experimental Results hereinafter.

[2] = target: T1, Plasmodium falciparum lysyl t-RNA synthetase (Pf-KRS1) (Plasmodium falciparum, UniProt Q8IDJ8); test: Pf-KRS1 inhibition biochemical assay (Kinase-Glo, ATP depletion); details: read-out: Pf-KRS pIC50 (converted)
T1 construct: Pf KRS1-; made in house; host or cells: E. coli BL21 (DE3)
Description: Plasmodium falciparum Lysine tRNA Synthetase (KRS1) Biochemical Assay Methodology.
Lysine tRNA Synthetase (KRS1) is an enzyme which catalyses the esterification of L-Lysine to the appropriate transfer ribonucleic acid (tRNA), to form an aminoacyl-tRNA. Once the tRNA is charged, a ribosome transfers the amino acid from the tRNA onto a growing peptide, according to the genetic code.
The substrates of this reaction are L-lysine, and adenosine triphosphate (ATP), the overall reaction is: amino acid+tRNA+ATP→aminoacyl-tRNA+AMP+PPi
In this overall reaction AMP is adenosine monophosphate and PP; is inorganic pyrophosphate. The reaction progression in a biochemical assay can be tracked by the depletion of one of the substrates, in the case of this invention, ATP. This was done using the proprietary assay kit, Kinase Glo® Assay which is a luminescent kinase assay platform suitable for monitoring kinase activities using up to 10 μm ATP which is commercially available from the Promega Corporation of Madison, Wis., USA. The Kinase-Glo® Assay was performed in a single well of a multiwell plate by adding a volume of Kinase-Glo® Reagent equal to the volume of a completed kinase reaction and measuring luminescence. The resulting luminescent signal is correlated with the amount of ATP present and is inversely correlated with the amount of kinase activity. As such by use of this assay methodology a reduction of the luminescent signal is relative to the reduction in ATP as the reaction progresses. A compound which inhibits the action of KRS will show no drop in the luminescent signal from assay controls.
Assays were performed using both Plasmodium falciparum and human KRS to assess any selectivity of various test compounds.
Test compounds were solubilized in DMSO at a top concentration of 10 mM and serially diluted 1 in 3 to achieve a range of final assay concentrations of 50 μM to 2.5 nM in 10 μl reaction volume.
KRS was diluted to a working concentration of 75 nM in assay buffer (25 mM HEPES, 25 mM KOH, 10 mM MgCl2.6H2O, 50 mM KCl), and the following ‘Master Mix’ prepared in assay buffer: 0.1 mg/ml BSA, 250 μM DTT, 200 μM Spermine, 0.05% NP-40, ATP 3 μM for Pf KRS1 (4 μM for Hs KRS1), 0.4 mg/ml tRNA from Yeast, 60 μM L-Lysine, 0.5 U/ml Pyrophosphatase.
Plates were incubated at room temperature for 5 h for Pf KRS (2.5 hrs for HsKRS), then the assay stopped by the addition of 10 μl of The Kinase-Glo® Reagent Assay was performed in a single well of a multiwell plate by adding a volume of Kinase-Glo® Reagent which is commercially available from the Promega Corporation of Madison, Wis., USA. The plates were incubated in the dark for a further 15 mins before being read for luminescence on a BMG PHERAstar® FSX plate reader which is a multi-mode reader for use in high-throughput screening available from BMG Labtech if Cary, N.C., USA. Data were analysed by calculating the percentage inhibition compared to the maximum and minimum assay controls. Concentration effect curves were fitted using nonlinear regression within ActivityBase and IC50 values were determined using standard protocols.

T1 sequence (Q8IDJ8 entry or part of it, looked up, natural form): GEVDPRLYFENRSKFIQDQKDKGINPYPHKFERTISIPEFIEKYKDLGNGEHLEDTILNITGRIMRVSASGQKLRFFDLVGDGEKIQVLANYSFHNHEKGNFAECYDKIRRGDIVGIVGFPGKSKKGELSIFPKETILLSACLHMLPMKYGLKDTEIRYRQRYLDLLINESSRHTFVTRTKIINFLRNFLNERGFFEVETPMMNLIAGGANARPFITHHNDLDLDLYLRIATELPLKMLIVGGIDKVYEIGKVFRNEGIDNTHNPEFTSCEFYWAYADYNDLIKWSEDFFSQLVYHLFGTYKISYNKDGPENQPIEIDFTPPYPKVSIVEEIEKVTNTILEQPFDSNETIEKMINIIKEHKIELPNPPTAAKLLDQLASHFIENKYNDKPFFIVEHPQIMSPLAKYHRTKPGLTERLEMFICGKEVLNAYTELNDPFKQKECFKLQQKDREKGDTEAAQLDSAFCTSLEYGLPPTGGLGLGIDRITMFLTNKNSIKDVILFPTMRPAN

Row | Compound | EC50 (Hep G2) | EC50 [1] | EC50 (Cryptosporidium parvum) | IC50 [2] | pEC50 for Pf 3D7 [1]
1 | O=C(NCC1CCCCC1)c1cc(=O)c2ccc(O)cc2o1 [Example 4, N-(cyclohexylmethyl)-7-hydroxy-4-oxo-chromene-2-carboxamide] | 50100 nM | 1260 nM | 1580 nM | 1000 nM | 
2 | O=C(NCC1CCCCC1)c1cc(=O)c2ccc(Cl)cc2o1 [Example 9, 7-chloro-N-(cyclohexylmethyl)-4-oxo-chromene-2-carboxamide] |  | 1580 nM | 3550 nM | 200 nM | 
3 | O=C(NCC1CCC(F)(F)CC1)c1cc(=O)c2ccccc2o1 [Example 21, N-[(4,4-difluorocyclohexyl)methyl]-4-oxo-chromene-2-carboxamide] | 50100 nM |  | 7940 nM |  | 
4 | O=C(NCC1CCCC1)c1cc(=O)c2ccccc2o1 [Example 23, N-(cyclopentylmethyl)-4-oxo-chromene-2-carboxamide] |  | 1580 nM | 2000 nM | 398 nM | 
5 | O=C(NCCC1CCCC1)c1cc(=O)c2ccccc2o1 [Example 26, N-(2-cyclopentylethyl)-4-oxo-chromene-2-carboxamide] |  | 6310 nM | 10000 nM | 501 nM | 
6 | O=C(NCC1(O)CCCCC1)c1cc(=O)c2ccccc2o1 [Example 27, N-[(1-hydroxycyclohexyl)methyl]-4-oxo-chromene-2-carboxamide] | 50100 nM | 251 nM | 316 nM | 126 nM | 
7 | O=C(NCC1CC2CCC1C2)c1cc(=O)c2cc(F)ccc2o1 (centres unmarked) [Example 36, 6-fluoro-N-(norbornan-2-ylmethyl)-4-oxo-chromene-2-carboxamide] |  | 794 nM | 1260 nM | 126 nM | 
8 | O=C(NCC1(CO)CCCCC1)c1cc(=O)c2cc(F)ccc2o1 [Example 40, 6-fluoro-N-[[1-(hydroxymethyl)cyclohexyl]methyl]-4-oxo-chromene-2-carboxamide] | 50100 nM | 794 nM | 1580 nM | 251 nM | 
9 | O=C(NCC1(CCO)CCCCC1)c1cc(=O)c2cc(F)ccc2o1 [Example 40A, 6-Fluoro-N-((1-(2-hydroxyethyl)cyclohexyl)methyl)-4-oxo-4H-chromene-2-carboxamide] | 50100 nM | 200 nM |  | 200 nM | 
10 | O=C(NCC1(O)CCCCC1)c1cc(=O)c2cc(F)ccc2o1 [Example 41, 6-fluoro-N-[(1-hydroxycyclohexyl)methyl]-4-oxo-chromene-2-carboxamide] | 25100 nM | 200 nM | 501 nM | 100 nM | 
11 | O=C(NCC1CCCCC1)c1cc(=O)c2ccc(F)cc2o1 [Example 42, N-(cyclohexylmethyl)-7-fluoro-4-oxo-chromene-2-carboxamide] |  | 794 nM | 1260 nM | 200 nM | 
12 | NC(=O)c1ccc2oc(C(=O)NCC3CCCCC3)cc(=O)c2c1 [Example 43, N2-(cyclohexylmethyl)-4-oxo-chromene-2,6-dicarboxamide] |  | 3160 nM | 5010 nM | 398 nM | 
13 | C[C@H](NC(=O)c1cc(=O)c2cc(F)ccc2o1)C1CCCCC1 [Example 49A, (S)—N-(1-cyclohexylethyl)-6-fluoro-4-oxo-4H-chromene-2-carboxamide] |  | 398 nM | 158 nM | 126 nM | 
14 | O=C(NCC1(O)CCC(F)(F)CC1)c1cc(=O)c2cc(F)cc(F)c2o1 [Example 56, N-((4,4-difluoro-1-hydroxycyclohexyl)methyl)-6,8-difluoro-4-oxo-4H-chromene-2-carboxamide] |  | 1580 nM | 7940 nM | 316 nM | 
15 | O=C(NCC1(O)CCC(F)(F)CC1)c1cc(=O)c2cc(O)ccc2o1 [Example 57, N-[(4,4-difluoro-1-hydroxy-cyclohexyl)methyl]-6-hydroxy-4-oxo-chromene-2-carboxamide] |  | 158 nM | 5010 nM | 126 nM | 
16 | O=C(O)CC1(CNC(=O)c2cc(=O)c3cc(F)ccc3o2)CCCCC1 [Example 57L, 2-(1-((6-fluoro-4-oxo-4H-chromene-2-carboxamido)methyl)cyclohexyl)acetic acid] | 50100 nM | 794 nM | 5010 nM |  | 
17 | O=C(NCC1CCCCC1)c1cc(=O)c2cccc(O)c2o1 [Example 67, N-(cyclohexylmethyl)-8-hydroxy-4-oxo-4H-chromene-2-carboxamide] |  | 63.1 nM | 316 nM | 63.1 nM | 
18 | COc1cc2c(=O)cc(C(=O)NCC3CCCCC3)oc2cc1F [Example 71, N-(cyclohexylmethyl)-7-fluoro-6-methoxy-4-oxo-4H-chromene-2-carboxamide] |  | 3160 nM | 3980 nM | 398 nM | 
19 | O=C(NCC1(O)CCCCC1)c1cc(=O)c2cc(Cl)cc(O)c2o1 [Example 73, 6-Chloro-8-hydroxy-N-((1-hydroxycyclohexyl)methyl)-4-oxo-4H-chromene-2-carboxamide] | 20000 nM |  | 39.8 nM | 50.1 nM | 
20 | O=C(NCC1CCC(F)(F)CC1)c1cc(=O)c2ccc(F)c(O)c2o1 [Example 79, N-((4,4-difluorocyclohexyl)methyl)-7-fluoro-8-hydroxy-4-oxo-4H-chromene-2-carboxamide] | 50100 nM |  | 794 nM | 200 nM | 
21 | O=C(NCC1CCCCC1)c1cc(=O)c2cccc(CO)c2o1 [Example 82, N-(cyclohexylmethyl)-8-(hydroxymethyl)-4-oxo-chromene-2-carboxamide] | 50100 nM | 200 nM |  | 251 nM | 
22 | O=C(NCC1CCCCC1)c1cc(=O)c2cccc(C(=O)O)c2o1 [Example 88, 2-((Cyclohexylmethyl)carbamoyl)-4-oxo-4H-chromene-8-carboxylic acid] |  |  | 7940 nM |  | 
23 | Cc1c(C(=O)NCC2CCCCC2)oc2ccc(F)cc2c1=O [Example 91, N-(cyclohexylmethyl)-6-fluoro-3-methyl-4-oxo-4H-chromene-2-carboxamide] |  | 5010 nM | 2510 nM | 631 nM | 5.2
24 | Nc1cc(F)cc2c(=O)cc(C(=O)NCC3(O)CCC(F)(F)CC3)oc12 [Example 93, 8-amino-N-[(4,4-difluoro-1-hydroxy-cyclohexyl)methyl]-6-fluoro-4-oxo-chromene-2-carboxamide] | 12600 nM |  | 501 nM | 50.1 nM and 63.1 nM | 
25 | CS(=O)(=O)Nc1cc(F)cc2c(=O)cc(C(=O)NCC3CCCCC3)oc12 [Example 100, N-(cyclohexylmethyl)-6-fluoro-8-(methanesulfonamido)-4-oxo-chromene-2-carboxamide] | 50100 nM | 200 nM |  | 158 nM | 

— patent publication US11485720B2, “Anti-infective agents” (University of Dundee, priority 2016, dated 2022)
